# Laboratory results taken from the Kinase Knowledgebase extract (Sharma et al. 2016).
# Key:
# MAPK14 (human) = MAPK14 (human) (UniProt Q16539); test: Inhibition of MAPK14 Kinase Activity
# PIK3CA (human) [1] = biological target: PIK3CA (human) (UniProt P42336); test: Inhibition of Substrate Phosphorylation by PIK3CA; details: hct 116,bxpc-3 pancreatic,mda-mb-468, concentration not given here
# PIK3CA (human) [2] = biological target: PIK3CA (human) (UniProt P42336); test: Inhibition of PIK3CA Kinase Activity
# Chain of PIK3CA (human) (P42336 whole entry, looked up): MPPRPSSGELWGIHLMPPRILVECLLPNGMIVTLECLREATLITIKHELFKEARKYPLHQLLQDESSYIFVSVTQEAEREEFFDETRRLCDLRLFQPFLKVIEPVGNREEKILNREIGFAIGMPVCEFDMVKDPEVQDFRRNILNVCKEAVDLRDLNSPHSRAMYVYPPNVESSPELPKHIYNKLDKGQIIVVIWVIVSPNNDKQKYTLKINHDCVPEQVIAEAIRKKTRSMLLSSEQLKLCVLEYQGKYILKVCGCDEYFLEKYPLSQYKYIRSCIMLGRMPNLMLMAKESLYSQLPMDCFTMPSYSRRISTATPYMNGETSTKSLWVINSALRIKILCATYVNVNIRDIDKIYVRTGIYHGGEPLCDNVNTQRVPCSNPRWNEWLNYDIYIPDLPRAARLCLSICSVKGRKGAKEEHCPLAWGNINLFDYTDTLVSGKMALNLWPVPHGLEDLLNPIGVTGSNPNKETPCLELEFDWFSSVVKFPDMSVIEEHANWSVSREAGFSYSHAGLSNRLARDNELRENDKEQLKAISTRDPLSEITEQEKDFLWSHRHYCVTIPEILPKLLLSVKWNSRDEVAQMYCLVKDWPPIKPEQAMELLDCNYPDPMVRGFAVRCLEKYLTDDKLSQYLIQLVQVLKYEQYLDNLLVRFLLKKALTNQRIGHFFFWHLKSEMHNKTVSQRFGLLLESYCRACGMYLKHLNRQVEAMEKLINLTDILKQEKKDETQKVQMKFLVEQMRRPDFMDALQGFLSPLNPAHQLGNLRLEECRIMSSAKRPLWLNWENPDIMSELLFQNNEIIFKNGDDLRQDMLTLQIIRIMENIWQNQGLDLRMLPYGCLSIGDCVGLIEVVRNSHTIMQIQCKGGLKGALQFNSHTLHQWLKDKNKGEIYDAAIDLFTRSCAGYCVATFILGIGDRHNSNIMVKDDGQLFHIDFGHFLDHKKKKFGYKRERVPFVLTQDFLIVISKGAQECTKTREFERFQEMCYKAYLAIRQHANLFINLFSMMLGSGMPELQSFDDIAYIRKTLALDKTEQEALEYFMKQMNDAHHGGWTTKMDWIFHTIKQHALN
# Chain of MAPK14 (human) (Q16539 whole entry, looked up): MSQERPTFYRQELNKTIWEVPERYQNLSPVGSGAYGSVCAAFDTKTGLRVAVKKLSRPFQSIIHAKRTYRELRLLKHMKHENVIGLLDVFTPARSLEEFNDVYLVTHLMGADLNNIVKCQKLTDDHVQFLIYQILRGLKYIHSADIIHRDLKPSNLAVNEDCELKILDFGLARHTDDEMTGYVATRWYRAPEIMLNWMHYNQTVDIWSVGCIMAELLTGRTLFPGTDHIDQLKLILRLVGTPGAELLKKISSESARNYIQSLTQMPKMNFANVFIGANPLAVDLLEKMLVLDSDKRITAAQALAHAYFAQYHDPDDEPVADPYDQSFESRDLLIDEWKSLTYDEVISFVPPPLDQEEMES
Structure (SMILES),IC50 (MAPK14 (human)) [µM],inhibition (PIK3CA (human) [1]) [%],IC50 (PIK3CA (human) [2]) [µM]
CCNC(=O)Nc1ccc2ncc(-c3ccc(OC(=O)/C=C/c4ccccc4)cc3)nc2n1,> 100,,> 31.6
CCNC(=O)Nc1ccc(-c2cnc3ccc(NC(=O)NCC)nc3n2)cn1,> 100,,
CCNC(=O)Nc1ccc2ncc(Nc3ccc(NC(C)=O)cc3)nc2n1,> 100,,
CCNC(=O)Nc1ccc2ncc(-c3ccc(OC(=O)OCC(C)C)cc3)nc2n1,> 100,,
CCOP(=O)(CCCCNC(=O)Nc1ccc2ncc(-c3ccc(O)c(OC)c3)nc2n1)OCC,> 100,,
CCNC(=O)Nc1ccc2ncc(-c3ccc(OC(=O)N(C)C)cc3)nc2n1,> 100,,
CCNC(=O)Nc1ccc2ncc(-c3ccc(OC(=O)Oc4ccccc4)cc3)nc2n1,> 100,,
COc1cc(-c2cnc3ccc(NC(=O)NCCCCP(=O)(O)O)nc3n2)ccc1O,> 100,,
COCCOC(=O)Oc1ccc(-c2cnc3ccc(NC(=O)NCCCCO)nc3n2)cc1,> 31.6,,
CCNC(=O)Nc1ccc2ncc(Nc3ccc(C)c(NS(C)(=O)=O)c3)nc2n1,,90,

# Continued, values first:
IC50 (MAPK14 (human)) [µM],inhibition (PIK3CA (human) [1]) [%],IC50 (PIK3CA (human) [2]) [µM],Structure (SMILES)
> 100,100,,CCNC(=O)Nc1ccc2ncc(-c3ccc(OC(=O)OCCOC)cc3)nc2n1
> 100,,,CCNC(=O)Nc1ccc2ncc(-c3ccc(NC(=O)COCCOC)cc3)nc2n1
> 100,50,,CCNC(=O)Nc1ccc2ncc(-c3ccc(OC(=O)OC)cc3)nc2n1
> 100,70,,CCNC(=O)Nc1ccc(-c2cnc3ccc(NC(=O)NCC)nc3n2)cc1
> 100,90,,CCNC(=O)Nc1ccc2ncc(-c3ccc(OC(=O)OCCOC)c(OC)c3)nc2n1
> 100,,,CCNC(=O)Nc1ccc2ncc(-c3ccc(NC(=O)OCCOC)cc3)nc2n1
> 100,,,CCNC(=O)Nc1ccc2ncc(-c3ccc(NC(=O)OC(C)(C)C)cc3)nc2n1
> 100,,,CCNC(=O)Nc1ccc2ncc(-c3cccc(OC(=O)OCCOC)c3)nc2n1
